system: MDA-MB-231 human breast cancer cells; test: Cell proliferation assay (CellTiter-Glo, 72 hours treatment); type: cell-based; conditions: Homo sapiens, MDA-MB-231, 72 h, read-out: MDA-MB-231 cell proliferation assay (IC50)
Procedure, shortened: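 IC50 categories: under 100 nM +++, 100–1000 nM ++, above 1000 nM +, derived by sigmoidal curve fitting of CellTiter-Glo luminescence. Cells plated at 2,500 per well, dosed the following day and exposed 72 h at 37 °C versus DMSO control.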

Compound | IC50
COc1cncc2c1[C@]1(O)C(=O)C(C(=O)N(C)C)[C@@H](c3ccccc3)[C@]1(c1ccc(Br)cc1)O2 (mixture of isomers) [192F, Rac-(4bR,7S,7aR)-7a-(4-bromophenyl)-4b-hydroxy-4-methoxy-N,N-dimethyl-5-oxo-7-phenyl-4b,6,7,7a-tetrahydro-5H-cyclopenta[4,5]furo[2,3-c]pyridine-6-carboxamide] | > 1000 nM

same assay, conditions: Homo sapiens; MDA-MB-231 cells, 72 hours at 37° C., CellTiter-Glo; read-out: MDA-MB-231 cell proliferation assay (IC50)

Compound | IC50
COc1cncc2c1[C@]1(O)[C@@H](CNC3COC3)[C@H](CO)[C@@H](c3ccccc3)[C@]1(c1ccc(Br)cc1)O2 (racemic) [185F, Rac-(4bR,5R,6R,7S,7aR)-7a-(4-bromophenyl)-6-(hydroxymethyl)-4-methoxy-5-((oxetan-3-ylamino)methyl)-7-phenyl-5,6,7,7a-tetrahydro-4bH-cyclopenta[4,5]furo[2,3-c]pyridin-4b-ol] | < 100 nM
COc1cncc2c1[C@]1(O)[C@H](O)[C@H](C(=O)N(C)C)[C@@H](c3ccccc3)[C@]1(c1ccc(C)cc1)O2 (racemic) [255F, rac-(4bS,5R,6R,7S,7aR)-4b,5-dihydroxy-4-methoxy-N,N-dimethyl-7-phenyl-7a-(p-tolyl)-4b,6,7,7a-tetrahydro-5H-cyclopenta[4,5]furo[2,3-c]pyridine-6-carboxamide] | 100 to 1000 nM
COc1cncc2c1[C@]1(O)[C@@H](CNC3COC3)[C@H](CO)[C@@H](c3ccccc3)[C@]1(c1ccc(C#N)cc1)O2 (racemic) [186F, Rac-4-((4bR,5R,6R,7S,7aR)-4b-hydroxy-6-(hydroxymethyl)-4-methoxy-5-((oxetan-3-ylamino)-methyl)-7-phenyl-4b,5,6,7-tetrahydro-7aH-cyclopenta[4,5]furo[2,3-c]pyridin-7a-yl)-benzonitrile] | < 100 nM
COc1cncc2c1[C@]1(O)[C@H](O)[C@H](C(=O)NCC(F)(F)F)[C@@H](c3ccccc3)[C@]1(c1ccc(Br)cc1)O2 (racemic) [90F, Rac-(4bS,5R,6R,7S,7aR)-7a-(4-bromophenyl)-4b,5-dihydroxy-4-methoxy-7-phenyl-N-(2,2,2-trifluoroethyl)-4b,6,7,7a-tetrahydro-5H-cyclopenta[4,5]furo[2,3-c]pyridine-6-carboxamide] | < 100 nM
COc1cncc2c1[C@]1(O)[C@@H](CN(C)C)[C@H](CO)[C@@H](c3ccccc3)[C@]1(c1ccc(Br)cc1)O2 (racemic) [205F, Rac-(4bR,5R,6R,7S,7aR)-7a-(4-bromophenyl)-5-((dimethylamino)methyl)-6-(hydroxymethyl)-4-methoxy-7-phenyl-5,6,7,7a-tetrahydro-4bH-cyclopenta[4,5]furo[2,3-c]pyridin-4b-ol] | < 100 nM
COc1cncc2c1[C@]1(O)[C@@H](CN3CCOCC3)[C@H](CO)[C@@H](c3ccccc3)[C@]1(c1ccc(Br)cc1)O2 (racemic) [179F, Rac-(4bR,5R,6R,7S,7aR)-7a-(4-bromophenyl)-6-(hydroxymethyl)-4-methoxy-5-(morpho-linomethyl)-7-phenyl-5,6,7,7a-tetrahydro-4bH-cyclopenta[4,5]furo[2,3-c]pyridin-4b-ol] | < 100 nM
COc1cncc2c1[C@]1(O)[C@@H](CNCC(F)F)[C@H](CO)[C@@H](c3ccccc3)[C@]1(c1ccc(C#N)cc1)O2 (racemic) [182F, Rac-4-((4bR,5R,6R,7S,7aR)-5-(((2,2-difluoroethyl)amino)methyl)-4b-hydroxy-6-(hydroxyl-methyl)-4-methoxy-7-phenyl-4b,5,6,7-tetrahydro-7aH-cyclopenta[4,5]furo[2,3-c]pyridin-7a-yl)benzonitrile] | < 100 nM
CN(C)C(=O)[C@H]1[C@@H](O)[C@@]2(O)c3ncc(Cl)cc3O[C@@]2(c2ccc(C#N)cc2)[C@@H]1c1ccccc1 (single isomer, unassigned) [3F] | < 100 nM
COC(=O)[C@H]1[C@@H](O)[C@@]2(O)c3nn(C)cc3O[C@@]2(c2ccc(C#N)cc2)[C@@H]1c1ccccc1 (racemic) [21F, Rac-methyl (4aR,5S,6R,7R,7aS)-4a-(4-cyanophenyl)-7,7a-dihydroxy-2-methyl-5-phenyl-2,4a,5,6,7,7a-hexahydrocyclopenta[4,5]furo[3,2-c]pyrazole-6-carboxylate] | > 1000 nM
COc1nc(Cl)cc2c1[C@]1(O)[C@H](O)[C@H](CN(C)C)[C@@H](c3ccccc3)[C@]1(c1ccc(Br)cc1)O2 (racemic) [138F, Rac-(5aR,6S,7S,8R,8aS)-5a-(4-bromophenyl)-3-chloro-7-((dimethylamino)methyl)-1-methoxy-6-phenyl-5a,6,7,8-tetrahydro-8aH-cyclopenta[4,5]furo[3,2-c]pyridine-8,8a-diol] | < 100 nM
C=C1C[C@@H](c2ccccc2)[C@]2(c3ccc(Br)cc3)Oc3cc(Cl)cnc3[C@]12O (racemic) [34F, Rac-(5aR,6S,8aR)-5a-(4-bromophenyl)-3-chloro-8-methylene-6-phenyl-5a,6,7,8-tetrahydro-8aH-cyclopenta[4,5]furo[3,2-b]pyridin-8a-ol] | > 1000 nM
COc1cncc2c1[C@]1(O)[C@H](O)[C@H](C(=O)N(C)CC(F)F)[C@@H](c3ccccc3)[C@]1(c1ccc(Br)cc1)O2 (racemic) [111F, Rac-(4bS,5R,6R,7S,7aR)-7a-(4-bromophenyl)-N-(2,2-difluoroethyl)-4b,5-dihydroxy-4-methoxy-N-methyl-7-phenyl-4b,6,7,7a-tetrahydro-5H-cyclopenta[4,5]furo[2,3-c]pyridine-6-carboxamide] | < 100 nM
COc1nc(Cl)cc2c1[C@]1(O)[C@H](O)[C@H](CN3CC(C(F)F)C3)[C@@H](c3ccccc3)[C@]1(c1ccc(C#N)cc1)O2 (racemic) [217F, rac-4-((5aR,6S,7S,8R,8aS)-3-chloro-7-((3-(difluoromethyl)azetidin-1-yl)methyl)-8,8a-dihydroxy-1-methoxy-6-phenyl-6,7,8,8a-tetrahydro-5aH-cyclopenta[4,5]furo[3,2-c]pyridin-5a-yl)benzonitrile] | < 100 nM
COc1nc(C#N)cc2c1[C@]1(O)[C@H](O)[C@H](CN3CCC(F)CC3)[C@@H](c3ccccc3)[C@]1(c1ccc(C#N)cc1)O2 (racemic) [156Fc, Rac-(5aR,6S,7S,8R,8aS)-5a-(4-cyanophenyl)-7-((4-fluoropiperidin-1-yl)methyl)-8,8a-dihydroxy-1-methoxy-6-phenyl-5a,7,8,8a-tetrahydro-6H-cyclopenta[4,5]furo[3,2-c]pyridine-3-carbonitrile] | < 100 nM
COc1cncc2c1[C@]1(O)[C@H](O)[C@H](C(=O)NCC(F)F)[C@@H](c3ccccc3)[C@]1(c1ccc(C(F)(F)F)cc1)O2 (racemic) [285F, Rac-(4bS,5R,6R,7S,7aR)—N-(2,2-difluoroethyl)-4b,5-dihydroxy-4-methoxy-7-phenyl-7a-(4-(trifluoromethyl)phenyl)-4b,6,7,7a-tetrahydro-5H-cyclopenta[4,5]furo[2,3-c]pyridine-6-carboxamide] | 100 to 1000 nM
COc1nc(C#N)cc2c1[C@]1(O)[C@H](O)[C@H](CN3CC(F)(F)C3)[C@@H](c3ccccc3)[C@]1(c1ccc(C#N)cc1)O2 [288F, (5aR,6S,7S,8R,8aS)-5a-(4-cyanophenyl)-7-((3,3-difluoroazetidin-1-yl)methyl)-8,8a-dihydroxy-1-methoxy-6-phenyl-5a,7,8,8a-tetrahydro-6H-cyclopenta[4,5]furo[3,2-c]pyridine-3-carbonitrile] | < 100 nM
COc1cncc2c1[C@]1(O)[C@H](O)[C@H](CNCC(C)(C)O)[C@@H](c3ccccc3)[C@]1(c1ccc(C#N)cc1)O2 (single isomer, unassigned) [254F] | < 100 nM
COc1nc(Cl)cc2c1[C@]1(O)[C@H](O)[C@H](CN(C)C)[C@@H](c3ccccc3)[C@]1(c1ccc(Cl)cc1)O2 (racemic) [142F, Rac-(5aR,6S,7S,8R,8aS)-3-chloro-5a-(4-chlorophenyl)-7-((dimethylamino)methyl)-1-methoxy-6-phenyl-5a,6,7,8-tetrahydro-8aH-cyclopenta[4,5]furo[3,2-c]pyridine-8,8a-diol] | < 100 nM
CN(C)C(=O)[C@H]1C(=O)[C@@]2(O)c3ncc(Cl)cc3O[C@@]2(c2ccc(C#N)cc2)[C@@H]1c1ccccc1 (racemic) [32F, Rac-(5aR,6S,7R,8aR)-3-chloro-5a-(4-cyanophenyl)-8a-hydroxy-N,N-dimethyl-8-oxo-6-phenyl-5a,7,8,8a-tetrahydro-6H-cyclopenta[4,5]furo[3,2-b]pyridine-7-carboxamide] | > 1000 nM
COc1nc(C#N)cc2c1[C@]1(O)[C@H](O)[C@H](CN3CCCC(F)(F)C3)[C@@H](c3ccccc3)[C@]1(c1ccc(C#N)cc1)O2 (racemic) [154F, Rac-(5aR,6S,7S,8R,8aS)-5a-(4-cyanophenyl)-7-((3,3-difluoropiperidin-1-yl)methyl)-8,8a-dihydroxy-1-methoxy-6-phenyl-5a,7,8,8a-tetrahydro-6H-cyclopenta[4,5]furo[3,2-c]pyridine-3-carbonitrile] | 100 to 1000 nM
CN(C)S(=O)(=O)[C@H]1[C@@H](O)[C@@]2(O)c3ncc(Cl)cc3O[C@@]2(c2ccc(C#N)cc2)[C@@H]1c1ccccc1 (racemic) [22F, Rac-(5aR,6S,7R,8S,8aS)-3-chloro-5a-(4-cyanophenyl)-8,8a-dihydroxy-N,N-dimethyl-6-phenyl-5a,7,8,8a-tetrahydro-6H-cyclopenta[4,5]furo[3,2-b]pyridine-7-sulfonamide] | 100 to 1000 nM
CCN(CC)C[C@H]1[C@@H](O)[C@@]2(O)c3c(OC)cncc3O[C@@]2(c2ccc(C#N)cc2)[C@@H]1c1ccccc1 (single isomer, unassigned) [73F] | < 100 nM
COc1ccc([C@@]23Oc4cc(OC)ccc4[C@]2(N=[N+]=[N-])[C@H](O)[C@H](C(=O)N(C)C)[C@H]3c2ccccc2)cc1 (racemic) [42F, Rac-(1R,2R,3S,3aR,8bS)-8b-azido-1-hydroxy-6-methoxy-3a-(4-methoxyphenyl)-N,N-dimethyl-3-phenyl-2,3-dihydro-1H-cyclopenta[b]benzofuran-2-carboxamide] | 100 to 1000 nM

— patent publication US10577378B2, “EIF4A-inhibiting compounds and methods related thereto” (eFFECTOR Therapeutics, Inc., priority 2015, dated 2020)
